From PubChem BioAssay (NCI)
“And” between values parts separate entries of the source, which are not always exact repeats. Equal entries are not always repeated.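 Compound exposure: 48 hours, 5 concentrations, 96-well plates. GI50: concentration for 50% inhibition of growth. TGI is the concentration that stops growth completely.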

How the values were obtained:
Experiment in all cases: NCI-60 cell line screen, 48 h
[1] = test system: SF-268 CNS
[2] = test system: LOX IMVI melanoma
[3] = test system: RPMI-8226 leukemia
[4] = test system: OVCAR-8 ovarian
[5] = test system: T-47D breast
[6] = test system: MDA-N
[7] = test system: NCI-H460 lung
[8] = test system: HS 578T breast
[9] = test system: CAKI-1 renal
[10] = test system: MDA-MB-435
[11] = test system: HCT-15 colon
[12] = test system: SR leukemia
[13] = test system: HOP-92 NSCLC
[14] = test system: UACC-257 melanoma

SMILES	TGI [1]	TGI [2]	TGI [3]	TGI [4]	TGI [5]	TGI [6]	TGI [7]	TGI [8]	TGI [9]	TGI [10]	TGI [11]	TGI [12]	TGI [13]	TGI [14]	GI50 [13]	GI50 [14]
O=[S@]1c2ccc3ccccc3c2N[C@@H]2[C@H]1[C@H]1C=C[C@@H]2C1	> 100 µM	> 100 µM	> 100 µM	> 100 µM	> 100 µM	60.8 µM	> 100 µM	> 100 µM	> 100 µM	99.6 µM	> 100 µM	> 100 µM	> 100 µM	> 100 µM	–	–
O=C1CC(CC(=O)c2ccc(Br)cc2)C(=O)/C1=C(/O)c1ccc(Br)cc1 (stereo unspecified)	> 100 µM	> 100 µM	> 100 µM	> 100 µM	> 100 µM	> 100 µM	> 100 µM	> 100 µM	> 100 µM	> 100 µM	> 100 µM	> 100 µM	> 100 µM	> 100 µM	–	–
CCC(C)[C@@H](Nc1c(O)c2c(c(O)c1Cl)C(=O)C=CC2=O)C(=O)OC (stereo partly specified)	> 10 µM	> 10 µM	7.39 µM	> 10 µM	> 10 µM	> 10 µM	> 10 µM	> 10 µM	> 10 µM	> 10 µM	> 10 µM	4.49 µM	> 10 µM	6.59 µM	–	–
COc1c(C(=O)NCCN(CCNC(=O)c2cccc(-c3cccc(C(=O)N(C)C)c3OC)c2OC)CCNC(=O)c2cccc(-c3cccc(C(=O)N(C)C)c3OC)c2OC)cccc1-c1cccc(C(=O)N(C)C)c1OC	47.2 µM	33.7 µM	63.7 µM	> 100 µM	> 100 µM	37.9 µM	> 100 µM	87.3 µM	> 100 µM	39.8 µM	> 100 µM	71.5 µM	46.2 µM	75.5 µM	–	–
COc1ccc(OC)c2c1C=CC(Br)=CC2	> 1 µM	0.302 µM	0.387 µM	> 1 µM	0.681 µM	0.529 µM	> 1 µM	> 1 µM	0.913 µM	0.853 µM	0.485 µM	0.488 µM	0.463 µM	0.942 µM	–	–
COC(=O)c1cc(NC(=O)Cc2c[nH]c3ccccc23)cn1C	> 100 µM	> 100 µM	63.9 µM	> 100 µM	> 100 µM	> 100 µM	> 100 µM	> 100 µM	> 100 µM	> 100 µM	> 100 µM	> 100 µM	–	> 100 µM	–	–
CCOC(=O)/C=C(/C(=O)OCC)n1ccc(=O)n(Cc2cnnn2COCCOC(C)=O)c1=O	44.4 µM	37.3 µM	51.2 µM	30.6 µM	29.2 µM	46.3 µM	> 65 µM	56.7 µM	11.4 µM	32.5 µM	31 µM	45.7 µM	6.81 µM	31.3 µM	–	–
COc1ccc2c(c1)CCCN1CCc3ccccc3C21 (stereo unspecified)	> 100 µM	> 100 µM	–	> 100 µM	> 100 µM	52.9 µM	> 100 µM	94 µM	> 100 µM	43.2 µM	> 100 µM	61.2 µM	> 100 µM	> 100 µM	–	–
O=C1CCc2ccc(O)c(c2)Oc2ccc(cc2)C(Sc2ccccc2)CCO1 (stereo unspecified)	42.4 µM	25.8 µM	36.4 µM	37.3 µM	54.1 µM	34.8 µM	–	36.2 µM	41.1 µM	41.9 µM	29.9 µM	76 µM	22.2 µM	32.6 µM	–	–
COC(=O)/C=C1/OC(c2ccccc2)=C(C)C1=O	35.5 µM	2.72 µM	5.65 µM	81.6 µM	42.7 µM	5.71 µM	39.2 µM	83.9 µM	14.8 µM	27.5 µM	17 µM	7.09 µM	26.2 µM	–	–	–
CC(=O)NCC1OC2COC(c3ccccc3)OC2C(NC(=O)c2ccccc2)C1OC(=O)c1ccccc1 (stereo unspecified)	> 100 µM	> 100 µM	–	> 100 µM	> 100 µM	> 100 µM	> 100 µM	> 100 µM	> 100 µM	> 100 µM	> 100 µM	–	> 100 µM	> 100 µM	–	–
CCOP(=O)(OCC)C(NC(=O)C(C(F)(F)F)C(F)(F)F)c1ccccc1 (stereo unspecified)	> 100 µM	> 100 µM	67 µM	> 100 µM	> 100 µM	> 100 µM	> 100 µM	> 100 µM	> 100 µM	> 100 µM	> 100 µM	> 100 µM	> 100 µM	> 100 µM	–	–
CCCSc1ccc2[nH]c(N3C(=O)/C(=C/c4ccc(SC)cc4)N=C3c3ccccc3)cc2c1	> 50 µM	> 50 µM	–	> 50 µM	> 50 µM	17.5 µM	> 50 µM	> 50 µM	> 50 µM	21.2 µM	> 50 µM	–	> 50 µM	> 50 µM	–	–
CC(=O)c1ccc2c(c1)CC1(C2)Cc2cc3c(c(C(=O)O)c2C1)CCC3 (stereo unspecified)	> 100 µM	> 100 µM	> 100 µM	> 100 µM	> 100 µM	> 100 µM	> 100 µM	> 100 µM	> 100 µM	> 100 µM	> 100 µM	> 100 µM	> 100 µM	> 100 µM	–	–
CC1=C(O)c2ccccc2C(=O)C1=O	> 100 µM	> 100 µM	> 100 µM	> 100 µM	> 100 µM	> 100 µM	> 100 µM	> 100 µM	> 100 µM	> 100 µM	> 100 µM	> 100 µM	> 100 µM	> 100 µM	–	–
NC1CCC(N(CC(=O)O)CC(=O)O)C(N(CC(=O)O)CC(=O)O)C1 (stereo unspecified)	> 100 µM	> 100 µM	> 100 µM	> 100 µM	> 100 µM	> 100 µM	> 100 µM	> 100 µM	> 100 µM	> 100 µM	> 100 µM	> 100 µM	> 100 µM	–	–	–
CCC1(c2ccc(N3C(=O)c4cc(OC)c(OC)cc4C3=O)cc2)CCC(=O)NC1=O (stereo unspecified)	> 10 µM	> 10 µM	> 10 µM	> 10 µM	> 10 µM	> 10 µM	> 10 µM	> 10 µM	> 10 µM	> 10 µM	> 10 µM	> 10 µM	> 10 µM	> 10 µM	–	–

SMILES	TGI [1]	TGI [2]	TGI [3]	TGI [4]	TGI [5]	TGI [6]	TGI [7]	TGI [8]	TGI [9]	TGI [10]	TGI [11]	TGI [12]	TGI [13]	TGI [14]	GI50 [13]	GI50 [14]
COc1ccc(N=NC(=O)NC(CC(C)C)C(=O)NCC(=O)O)cc1 (stereo unspecified)	> 100 µM	> 100 µM	> 100 µM	> 100 µM	> 84 µM	> 100 µM	> 58.7 µM	> 100 µM	> 100 µM	> 100 µM	> 100 µM	> 100 µM	> 100 µM	> 100 µM	–	–
CCOC(=O)c1nc2ccc(C(F)(F)F)cc2nc1NCc1ccc(OC)c(OC)c1	> 100 µM	> 100 µM	> 100 µM	> 100 µM	> 100 µM	> 100 µM	> 100 µM	> 100 µM	> 100 µM	> 100 µM	> 100 µM	> 100 µM	> 100 µM	> 100 µM	–	–
COc1cccc(C2c3cc4c(cc3OC(NNS(=O)(=O)c3ccc(C)cc3)C2C)OCO4)c1OC (stereo unspecified)	> 100 µM	5.15 µM	6.86 µM	> 100 µM	> 100 µM	> 100 µM	8.64 µM	21.1 µM	8.56 µM	> 100 µM	9.82 µM	3.29 µM	7.18 µM	> 100 µM	–	–
COc1ccc(COC(=O)NCC(=O)NC(C)C(=O)NC(Cc2ccccc2)C(=O)OCc2ccccc2)cc1 (stereo unspecified)	> 100 µM and 55.2 µM	79.1 µM and 38.8 µM	> 100 µM and 57.1 µM	> 100 µM	48.6 µM and 86.2 µM	> 100 µM and 62.8 µM	22.7 µM	70.3 µM and 63.9 µM	41.5 µM and 65.7 µM	47.3 µM and 71.7 µM	> 100 µM	> 100 µM and 51.7 µM	37.8 µM and > 100 µM	29.8 µM and > 100 µM	18.2 µM and 40.9 µM	15.7 µM and > 100 µM
O=Cc1cc(C(=O)OCc2ccccc2)n(S(=O)(=O)c2ccccc2)c1	65.5 µM	62.5 µM	–	> 100 µM	> 100 µM	30.3 µM	70.2 µM	49.2 µM	55.2 µM	12.9 µM	50.7 µM	> 100 µM	–	64 µM	–	–
[B-][P+](CC[P+]1([B-])[C@@H](C)[C@@H](O)[C@H](O)[C@@H]1C)(c1ccccc1)c1ccccc1OC (stereo partly specified)	32.8 µM	8.51 µM	55.4 µM	31.5 µM	37.3 µM	29.6 µM	32 µM	22.6 µM	30.4 µM	30.4 µM	33.3 µM	–	33 µM	20.3 µM	–	–
CN(C)N1C(=O)S/C(=C\c2ccc([N+](=O)[O-])cc2)C1=O	> 100 µM	> 100 µM	–	> 100 µM	> 100 µM	> 100 µM	> 100 µM	> 100 µM	> 100 µM	> 100 µM	> 100 µM	> 100 µM	> 100 µM	> 100 µM	–	–
C=CCOC(=O)C1=C(C)NC2=N[C@H](CCCCCCCCC)C[C@@H]3CCC1N23 (stereo partly specified)	39.9 µM	44.9 µM	> 100 µM	> 100 µM	60.2 µM	38.4 µM	72.6 µM	54.4 µM	> 100 µM	44.5 µM	56.2 µM	> 100 µM	38 µM	37.1 µM	–	–
COc1ccc2c(c1)/C(=C\c1c(Cl)[nH]c3ccccc13)C(=O)N2	16 µM	17.5 µM	16.3 µM	23.8 µM	> 100 µM	3.83 µM	14.5 µM	9.88 µM	27.1 µM	3.82 µM	37.2 µM	8.25 µM	12.5 µM	20.4 µM	–	–
COc1ccc(-c2c3c(n(C4OC(CO)C(O)C(O)C4O)c(=S)c2C#N)CCCC3)cc1 (stereo unspecified)	–	> 100 µM	–	> 100 µM	> 100 µM	> 100 µM	> 100 µM	> 100 µM	> 100 µM	> 100 µM	> 100 µM	> 100 µM	–	> 100 µM	–	–
C=C1C(=O)O[C@H]2C1C[C@@H](OC(C)=O)/C(C)=C/CC[C@@]1(C)O[C@H]21 (stereo partly specified)	–	19.1 µM	13.6 µM	32.5 µM	21.5 µM	18.7 µM	> 100 µM	86 µM	22.1 µM	87.7 µM	22.9 µM	20.1 µM	32.4 µM	19.6 µM	–	–
Cc1c(N=C/C=C/c2ccccc2)c(=O)n(-c2ccccc2)n1C	> 100 µM	25 µM	38.6 µM	54.4 µM	62.4 µM	54 µM	> 100 µM	69.8 µM	> 100 µM	> 100 µM	> 100 µM	–	> 100 µM	> 100 µM	–	–
CCCCc1ccc(Nc2nc(OC)c3ncn(C4CC(O)C(CO)O4)c3n2)cc1 (stereo unspecified)	34.5 µM	31.4 µM	71.9 µM	35.2 µM	43.1 µM	30 µM	32.9 µM	42 µM	3.49 µM	36.6 µM	34.3 µM	–	5.03 µM	34.6 µM	–	–
COC(=O)CCNC(=O)OCc1ccccc1	> 100 µM	> 100 µM	> 100 µM	> 100 µM	> 100 µM	> 100 µM	> 100 µM	> 100 µM	> 100 µM	> 100 µM	> 100 µM	> 100 µM	–	> 100 µM	–	–
O=[N+]([O-])c1ccc(-n2nc3ccc4c(no[n+]4[O-])c3n2)cc1	> 100 µM	> 100 µM	–	> 100 µM	> 100 µM	> 100 µM	> 100 µM	> 100 µM	> 100 µM	> 100 µM	> 100 µM	> 100 µM	> 100 µM	> 100 µM	–	–
O=C1NN(Cc2ccccc2)C(=O)N2CCC[C@@H]12	> 100 µM	> 100 µM	–	> 100 µM	> 100 µM	> 100 µM	> 100 µM	> 100 µM	> 100 µM	> 100 µM	> 100 µM	–	> 100 µM	> 100 µM	–	–
